{"source": "PubChem BioAssay AID180", "about": "(DTP/NCI, 2004)", "tested_on": "BDF1 mice, Adenocarcinoma 755 s.c., tumor weight T/C", "assay": "NCI In Vivo Anticancer Drug Screen. Data for tumor model Adenocarcinoma 755 (subcutaneous) in B6D2F1 (BDF1) mice", "conditions": "endpoint: mean tumor weight, schedule: Q01DX011 (ip), higher = larger tumour", "procedure,_shortened": "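Transplantable tumor implanted; mice dosed with compound or vehicle; survival or tumor size recorded; ratio of treated to vehicle control reported.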", "key": {"[1]": {"conditions": "dose: 125.0 mg/kg/injection, vehicle: methylcellulose (MC)"}, "[2]": {"conditions": "dose: 250.0 mg/kg/injection, vehicle: methylcellulose (MC)"}}, "note": "“And” between values parts separate entries of the source, which are not always exact repeats. Equal entries are not always repeated.", "data": [{"smiles": "O=S(=O)(O)c1cccnc1", "values": [{"measurement": "T/C", "setting": "dose: 19.63 mg/kg/injection, vehicle: carboxymethylcellulose (CMC)", "value": "68 % of control"}, {"measurement": "T/C", "setting": "dose: 37.36 mg/kg/injection, vehicle: carboxymethylcellulose (CMC)", "value": "91 % of control and 101 % of control"}, {"measurement": "T/C", "setting": "dose: 39.25 mg/kg/injection, vehicle: carboxymethylcellulose (CMC)", "value": "99 % of control"}, {"measurement": "T/C", "setting": "dose: 62.5 mg/kg/injection, vehicle: methylcellulose (MC)", "value": "108 % of control"}, {"measurement": "T/C", "setting": "dose: 78.5 mg/kg/injection, vehicle: carboxymethylcellulose (CMC)", "value": "152 % of control"}, {"measurement": "T/C", "setting": "[1]", "value": "76 % of control"}, {"measurement": "T/C", "setting": "dose: 157.0 mg/kg/injection, vehicle: carboxymethylcellulose (CMC)", "value": "79 % of control"}, {"measurement": "T/C", "setting": "[2]", "value": "95 % of control"}, {"measurement": "T/C", "setting": "dose: 298.9 mg/kg/injection, vehicle: carboxymethylcellulose (CMC)", "value": "120 % of control"}]}, {"smiles": "O=C(Nc1ccc(C2=NCCN2)cc1)c1cccc(C(=O)Nc2ccc(C3=NCCN3)cc2)c1", "values": [{"measurement": "T/C", "setting": "dose: 9.0 mg/kg/injection, vehicle: water", "value": "110 % of control"}, {"measurement": "T/C", "setting": "dose: 9.4 mg/kg/injection, vehicle: carboxymethylcellulose (CMC)", "value": "76 % of control"}, {"measurement": "T/C", "setting": "dose: 12.0 mg/kg/injection, vehicle: water", "value": "165 % of control"}, {"measurement": "T/C", "setting": "dose: 15.0 mg/kg/injection, vehicle: methylcellulose (MC)", "value": "86 % of control"}, {"measurement": "T/C", "setting": "dose: 18.0 mg/kg/injection, vehicle: water", "value": "108 % of control"}, {"measurement": "T/C", "setting": "dose: 18.75 mg/kg/injection, vehicle: carboxymethylcellulose (CMC)", "value": "60 % of control"}, {"measurement": "T/C", "setting": "dose: 25.0 mg/kg/injection, vehicle: water", "value": "60 % of control"}, {"measurement": "T/C", "setting": "dose: 30.0 mg/kg/injection, vehicle: methylcellulose (MC)", "value": "64 % of control"}, {"measurement": "T/C", "setting": "dose: 37.5 mg/kg/injection, vehicle: water", "value": "47 % of control"}, {"measurement": "T/C", "setting": "dose: 50.0 mg/kg/injection, vehicle: water", "value": "59 % of control"}, {"measurement": "T/C", "setting": "dose: 60.0 mg/kg/injection, vehicle: methylcellulose (MC)", "value": "67 % of control"}, {"measurement": "T/C", "setting": "dose: 120.0 mg/kg/injection, vehicle: methylcellulose (MC)", "value": "37 % of control"}]}, {"smiles": "Fc1cccc(CSc2ncnc3c2ncn3C2CCCCO2)c1", "note": "(stereo unspecified)", "values": [{"measurement": "T/C", "setting": "dose: 20.0 mg/kg/injection, vehicle: methylcellulose (MC)", "value": "13 % of control"}, {"measurement": "T/C", "setting": "dose: 65.0 mg/kg/injection, vehicle: methylcellulose (MC)", "value": "1 % of control"}]}, {"smiles": "C=CC1CN2CCC1CC2C(O)c1ccnc2ccc(OC)cc12", "note": "(stereo unspecified)", "values": [{"measurement": "T/C", "setting": "dose: 28.96 mg/kg/injection, vehicle: carboxymethylcellulose (CMC)", "value": "109 % of control"}, {"measurement": "T/C", "setting": "dose: 57.93 mg/kg/injection, vehicle: carboxymethylcellulose (CMC)", "value": "121 % of control"}, {"measurement": "T/C", "setting": "dose: 92.68 mg/kg/injection, vehicle: carboxymethylcellulose (CMC)", "value": "70 % of control"}, {"measurement": "T/C", "setting": "dose: 115.85 mg/kg/injection, vehicle: carboxymethylcellulose (CMC)", "value": "76 % of control"}, {"measurement": "T/C", "setting": "[1]", "value": "82 % of control"}, {"measurement": "T/C", "setting": "dose: 154.46 mg/kg/injection, vehicle: carboxymethylcellulose (CMC)", "value": "86 % of control"}, {"measurement": "T/C", "setting": "dose: 231.7 mg/kg/injection, vehicle: carboxymethylcellulose (CMC)", "value": "72 % of control"}, {"measurement": "T/C", "setting": "[2]", "value": "91 % of control"}]}]}
